Values quoted from earlier work as cited in patent US5026825A, “Intranasal calcitonin formulations” (Rhone-Poulenc Rorer Pharmaceuticals Inc., priority 1988, dated 1991).
Ends that are not written are not given here.

Details: calcitonin used in Example 6; USP 4,391,747

Substance | potency
Des asparagine-3-Calcitonins | 4,300 MRC units/mg

Same assay, conditions: calcitonins used in Examples 7-10; from cited US patents

Substance | potency
1A-endo-glycine-calcitonin | 4,650 IU/mg
D-Arginine^24 Calcitonins | 5,000 IU/mg
Glycine^8 -D-Arginine^24 Calcitonins | 3,500 IU/mg
[16-Alanine] Calcitonins [16-alanine calcitonin] | 6,200 IU/mg

Same assay, conditions: in vivo

Substance | potency (level of hypocalcemic activity)
beef calcitonin: natural calcitonin of beef (bovine) (CSNLSTCVLSAYWKDLNNYHRFSGMGFGPETP; ends and bridges not checked; cysteine pairing not given here; UniProt P01260 1-32, looked up) | 100 to 200 MRC U/mg peptide
chicken calcitonin (CASLSTCVLGKLSQELHKLQTYPRTDVGAGTP; ends and bridges not checked; cysteine pairing not given here; UniProt P07660 82-113, looked up) [natural calcitonin of chicken] | 4,000 to 6,000 MCR (Medical Research Council) U/mg peptide
eel calcitonin | 2,000 to 4,000 MRC U/mg peptide
hog calcitonin: natural calcitonin of hog (porcine) (CSNLSTCVLSAYWRNLNNFHRFSGMGFGPETP; ends and bridges not checked; cysteine pairing not given here; UniProt P01259 1-32, looked up) | 100 to 200 MRC U/mg peptide
man calcitonin: natural calcitonin of man (human) | 100 to 200 MRC U/mg peptide
rat calcitonin: natural calcitonin of rat (CGNLSTCMLGTYTQDLNKFHTFPQTSIGVGAP; ends and bridges not checked; cysteine pairing not given here; UniProt P01257 85-116, looked up) | 400 MRC U/mg
